These results are taken from publication PMC10724246 (Nature Communications, 2023).

The target in one experiment is T1, αWD40 domain (α-COPI) (Schizosaccharomyces pombe, UniProt Q96WV5).
T1 construct: strep-tag (C); made in house; host or cells: Expi293 cells
T1 sequence (Q96WV5 1-327 limits assumed): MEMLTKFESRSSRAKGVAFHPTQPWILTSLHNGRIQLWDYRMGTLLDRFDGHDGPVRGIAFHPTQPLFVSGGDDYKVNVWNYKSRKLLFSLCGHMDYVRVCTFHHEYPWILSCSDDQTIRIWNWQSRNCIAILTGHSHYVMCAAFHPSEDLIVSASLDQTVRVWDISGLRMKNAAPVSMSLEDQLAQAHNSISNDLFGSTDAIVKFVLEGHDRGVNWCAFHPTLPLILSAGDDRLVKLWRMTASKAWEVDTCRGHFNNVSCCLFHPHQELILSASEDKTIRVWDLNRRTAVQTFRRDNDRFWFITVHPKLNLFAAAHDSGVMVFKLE
As to the kind of experiment: Biolayer interferometry (BLI) of S tail peptides with wild-type αWD40. It counts as binding, S. pombe. On the procedure:
Recombinant expression and purification of S. pombe αWD40 and S. cerevisiae β‘WD40 domains (both wild type and mutants) were carried out as described[43],[72],[75]. Briefly, αWD40 with a C-terminal strep-tag was expressed and purified from Expi293 cells using polyethyleneimine (PEI). The clarified cell lysate was subjected to affinity chromatography followed by size-exclusion chromatography (SEC) on a preparative grade Superdex-75 column.
BLI assays with biotinylated S peptides from Biomatik (USA) and purified coatomer WD40 domains were carried out as described. […] S peptides were immobilized on streptavidin (SA) biosensors (FortéBio, USA). Measurements were performed on the Octet RED96 system (FortéBio, USA). Data acquisition and data analysis were performed using Data Acquisition 11.1 suite and FortéBio Data Analysis 11.1 software suite respectively. All experiments were performed at 25 °C and 1000 rpm shake speed. Appropriate sensor and loading controls were applied.
(In general: BLI is a label-free optical method that tracks binding on a fibre tip over time.)

The test system of the next experiment is WD40. As to conditions: peer review response; ref Dey et al Communications Biology 2022; cited from earlier work. The source says: page 26: dynamics/conformations of the tail. I see no need to perform experiments, but maybe this has been done (or other mutants been tested meanwhile)? Please comment at least! Response 3.21: We thank the reviewer for raising this point. We reported this BLI experiment in our previous publication, Dey et al Communications Biology 2022. […]

The target of a further experiment is yeast αWD40 domain. The settings on record: published value, Supplementary Table S6; ref Ma & Goldberg, EMBO J 2013; cited from earlier work.
Another experiment has as its target yeast β'WD40 domain. The settings on record: published value, Supplementary Table S6; ref Ma & Goldberg, EMBO J 2013; cited from earlier work.
Experiment [1] concerns the target T2, alpha-COP WD40 (Schizosaccharomyces pombe), Q96WV5.
T2 chain: T1 sequence (Q96WV5 1-327 limits assumed)
The settings on record: modification not given.

Setting [2] is: immobilized biotinylated peptide, αWD40 analyte, pH 6.5, 25 °C.
[3] abbreviates: immobilized biotinylated peptide, αWD40 analyte, pH 7.0, 25 °C.

No end group written: not given here.

For the molecule `CC(C)C[C@H](NC(=O)[C@H](CCCCN)NC(=O)[C@@H](NC(=O)CNC(=O)[C@H](CCCCN)NC(=O)[C@H](CC(C)C)NC(=O)[C@@H](NC(=O)[C@@H]1CCCN1C(=O)[C@H](CCC(=O)O)NC(=O)[C@H](CO)NC(=O)[C@H](CC(=O)O)NC(=O)[C@H](CC(=O)O)NC(=O)[C@H](CCC(=O)O)NC(=O)[C@H](CC(=O)O)NC(=O)[C@H](Cc1ccccc1)NC(=O)[C@H](CCCCN)NC(=O)[C@H](CS)NC(=O)[C@H](CS)NC(=O)CCCC[C@@H]1SC[C@@H]2NC(=O)N[C@@H]21)C(C)C)C(C)C)C(=O)N[C@@H](Cc1c[nH]cn1)C(=O)N[C@@H](Cc1ccc(O)cc1)C(=O)N[C@@H](CCC(=O)O)C(=O)O`, at αWD40 domain (α-COPI) (Equilibrium KD, immobilized biotinylated peptide, αWD40 analyte, pH 7.0, 25 °C), the Kd (in general, the concentration at which binding is half-saturated) worked out at 0.1 ± 0.002 µM. At αWD40 domain (α-COPI) (setting [2]), the koff (in general, the rate constant with which the complex falls apart) was found to be 0.0037 ± 0.0002 s⁻¹ and the kon is recorded as 59.9 ± 1.3 10^3/Ms. Further, at αWD40 domain (α-COPI) (setting [3]), the koff came out at 0.003 ± 0.0002 s⁻¹ and the kon is 60.8 ± 1.3 10^3/Ms.

On to GVKLHYA, for which the “WD40 binding in BLI assays (in words)” value with WD40 is listed as “modest enhancement”.

As to GVKLHYE-NH2 [GVKLHYE (amidated)], at αWD40 domain (α-COPI) (setting [2]), the koff was determined as 0.88 ± 0.02 s⁻¹ and the kon is on record as 706.2 ± 56.3 10^3/Ms.

GVKLHYT (amidated): the “binding to αWD40 (in words)” value at αWD40 domain (α-COPI) (Fig. 2M, listed as amidated wild-type S heptapeptide) is “Loss of αWD40 binding”.

Take R-R-S-F-I-D-E-K-K-M-P (RRSFIDEKKMP): the figures for the Kd on yeast αWD40 domain and on yeast β'WD40 domain were 64.5 ± 5.4 µM and 49 ± 2.2 µM, respectively.

Take GVKLHYT [Spike tail heptapeptide]: the Kd in experiment [1] came out at 1.4 µM.
